{
  "source": "patent US12589161B2",
  "about": "“PEGylated synthetic KL4 peptide, compositions and methods thereof” (THE UNIVERSITY OF HONG KONG, priority 2019, dated 2026)",
  "key": {"siRNA": {"tested_on": "siRNA", "experiment": "Fluorescence displacement assay of siRNA binding and heparin release", "conditions": "10:1 ratio, heparin titration", "experimental": "The siRNA binding affinity of the peptides was investigated by fluorescence displacement assay using negative control siRNA. The siRNA was added into 1× SYBR® Gold Tris-acetate-EDTA (TAE) buffer and incubated for 30 min at room temperature. The fluorescence intensity was quantified by fluorescence spectrophotometer (SpectraMax® M4, Molecular devices, LLC., CA, USA) at 495 nm excitation and 537 nm emission wavelengths. The peptides at concentration of 1 mg/mL were titrated to the siRNA/dye mixtures. The fluorescence intensity of siRNA/dye mixture in the presence of peptides was expressed as a percentage of that of the siRNA/dye mixture without peptides. The background fluorescence was subtracted from all measurements before analysis. Percentage change of fluorescence intensity was plotted against the weight ratio of peptides to siRNA upon titration. To further investigate the binding profile of the peptide/siRNA complexes, heparin was added to dissociate the complexes and release the siRNA. […] The heparin diluted in TAE buffer at concentration of 10 or 100 i.u./μL was titrated into the peptide/siRNA/dye mixture and the fluorescence intensity was measured as described above. Percentage change of fluorescence intensity was plotted against the amount of heparin upon titration. The data was fit to a four-parameter logistic sigmoidal curve and the EC50 and Hill slope were calculated."}, "[1]": {"experiment": "Circular dichroism, temperature ramping", "assay_type": "physicochemical", "conditions": "6 to 94 °C, 5 mM Tris-HCl buffer, 0.1 mg/mL", "experimental": "KL4 and PEG6KL4 peptides were dissolved in 5 mM Tris-HCl buffer at a final concentration of 0.1 mg/mL in 0.1% (v/v) DMSO. PEG12KL4 and PEG24KL4 were dissolved in 5 mM Tris-HCl buffer at a final concentration of 0.1 mg/mL without DMSO. CD spectra were acquired on a Chirascan™ Spectrometer (Applied Photophysics, Leatherhead, UK). For temperature ramping experiment, far-UV CD spectra were obtained with the peptide solution incubated from 6° C. to 94° C. Spectra were recorded from 260 to 190 nm using a 0.5 mm path length and were processed using Chirascan software where a spectrum of the peptide free solution was subtracted and Savitzky-Gorlay smoothing applied."}, "A549 cells": {"tested_on": "A549 cells", "experiment": "GAPDH siRNA transfection on A549 cells (Western blot)", "assay_type": "cell-based, human", "conditions": "A549, 10:1 ratio, 6 to 100 nM siRNA, 72 h", "experimental": "A549 cells were seeded in 6-well plates at a density of 1.5×10^5 cells per well one day before transfection. The cells were transfected with peptide/siRNA complexes containing 50 pmol of GAPDH siRNA or negative control siRNA per well (50 nM). The complexes were prepared in OptiMEM I reduced serum medium at 10:1, 15:1 and 20:1 ratios (w/w). Lipofectamine 2000 was used as control. The complexes were added to the cells and incubated for 4 h at 5% CO2, 37° C. before being washed with PBS. The transfection medium was removed and replaced with serum supplemented cell culture medium. At 72 h post-transfection, the cells were washed and lysed with cell lysis buffer. Western blotting assay was performed to analyze the level of GAPDH protein. The GAPDH expression was analyzed by densitometry of Western Blots using Image J software. The remaining GAPDH expression was the density of the GAPDH band of positive control (normalized with beta-actin of the corresponding sample) divided by the GAPDH band of negative control (normalized with the beta actin band of the corresponding sample).\n(§1) A549 cells, BEAS-2B and Calu-3 cells were seeded in six-well plates at a density of 1.6×10^5 cells per well, 2×10^5 cells per well and 3×10^5 cells per well, respectively, one to two days before transfection. The cells were transfected with peptide/siRNA complexes at 5:1 to 20:1 ratio (w/w) containing GAPDH siRNA or negative control siRNA (6 to 100 nM) in OptiMEM I reduced serum medium. Lipofectamine 2000 was used for comparison. After 5 h of incubation, the cells were washed and replaced with serum supplemented cell culture medium. At 72 h post-transfection, the cells were washed and lysed with cell lysis buffer. Western blotting assay was performed to analyze the level of GAPDH protein as previously described. The GAPDH expression was analyzed by densitometry of Western blots using ImageJ software (Version 1.52). The GAPDH expression was normalized with the expression of […]-actin of the corresponding sample. The remaining GAPDH expression was the normalized GAPDH expression of positive control divided by the normalized GAPDH expression of negative control."}, "[2]": {"experiment": "Charge ratio of peptide to siRNA at 10:1 weight ratio", "excerpt": "This is partly because the uncharged PEG chains reduced the effective charge ratio between cationic KL4 and siRNA [77]. The charge ratios of KL4, PEG6KL4, PEG12KL4 and PEG24KL4 to siRNA at 10:1 weight ratio are 6.1 to 1, 5.5 to 1, 4.9 to 1 and 4.2 to 1, respectively. […] The molecular weight of the PEG used in this study, which is below 1,200 Da, is relatively low compared with others where PEG of 2,000 to 5,000 Da was often used. Therefore, PEGylated KL4 peptide/siRNA complexes remained to be positively charged, which is suitable for cellular entry. […] In addition, PEG also provides steric hindrance between the interaction of KL4 and siRNA that weakens the binding, promoting the release of siRNA from the complexes after the addition of heparin."}, "Calu-3 cells": {"tested_on": "Calu-3 cells", "experiment": "GAPDH siRNA transfection on Calu-3 cells (Western blot)", "assay_type": "cell-based, human", "conditions": "one-way ANOVA, Tukey, n.s. not significant, * p<0.05, ** p<0.01, *** p<0.001", "experimental": "as §1"}, "[3]": {"experiment": "Solubility of peptides in water", "assay_type": "physicochemical"}, "BEAS-2B cells": {"tested_on": "BEAS-2B cells", "experiment": "GAPDH siRNA transfection on BEAS-2B cells (Western blot)", "assay_type": "cell-based, human", "conditions": "one-way ANOVA, Tukey, n.s. not significant, * p<0.05, ** p<0.01, *** p<0.001", "experimental": "as §1"}},
  "note": "Non-standard residues stand in square brackets, D forms with d. Residues, ends and D or L forms follow the SMILES beside them. PEG24 = NCCOCCOCCOCCOCCOCCOCCOCCOCCOCCOCCOCCOCCOCCOCCOCCOCCOCCOCCOCCOCCOCCOCCOCCOCCC(=O)O",
  "data": [
    {"smiles": "CC(C)C[C@H](NC(=O)[C@H](CC(C)C)NC(=O)[C@H](CC(C)C)NC(=O)[C@H](CC(C)C)NC(=O)[C@H](CCCCN)NC(=O)[C@H](CC(C)C)NC(=O)[C@H](CC(C)C)NC(=O)[C@H](CC(C)C)NC(=O)[C@H](CC(C)C)NC(=O)[C@H](CCCCN)NC(=O)[C@H](CC(C)C)NC(=O)[C@H](CC(C)C)NC(=O)[C@H](CC(C)C)NC(=O)[C@H](CC(C)C)NC(=O)[C@H](CCCCN)NC(=O)[C@H](CC(C)C)NC(=O)[C@H](CC(C)C)NC(=O)[C@H](CC(C)C)NC(=O)[C@H](CC(C)C)NC(=O)[C@H](CCCCN)NC(=O)CCOCCOCCOCCOCCOCCOCCOCCOCCOCCOCCOCCOCCOCCOCCOCCOCCOCCOCCOCCOCCOCCOCCOCCOCCN)C(=O)N[C@@H](CCCCN)C(N)=O", "note": "[PEG24KL4] (H-[PEG24]KLLLLKLLLLKLLLLKLLLLK-NH2; N-terminus assumed)", "values": [
      {"measurement": "binding affinity between peptide and siRNA", "setting": "siRNA", "result": "weakest"},
      {"measurement": "secondary structure at different temperatures (far-UV CD)", "setting": "[1]", "result": "adopted an alpha-helical structure at all tested temperatures"},
      {"measurement": "siRNA transfection efficiency among the four peptides at different amounts of siRNA", "setting": "A549 cells", "result": "lowest transfection efficiency"},
      {"measurement": "charge ratio of peptide to siRNA", "setting": "[2]", "result": "4.2 to 1"},
      {"measurement": "Comparison within the same peptide prepared at different peptide to siRNA ratios", "setting": "Calu-3 cells", "result": "n.s."},
      {"measurement": "solubility", "setting": "[3]", "result": "> 2000", "unit": "µg/mL"},
      {"measurement": "Comparison within the same peptide prepared at different peptide to siRNA ratios", "setting": "BEAS-2B cells", "result": "5:1 vs 20:1 *"}
    ]}
  ]
}
